Source: patent publication US7556825B2, “Method for promoting hair growth” (Anticancer, Inc., priority 1993, dated 2009)

What was measured:
[1] = test system: Fischer or Sprague-Dawley rats; conditions: cited from earlier work; for alopecia in young rats after treatment: starting from the head, around one to two weeks after treatment
patients = conditions: cited from earlier work
Sprague-Dawley rats = conditions: ip chemotherapy
Procedure: 8-day old Sprague-Dawley rats are treated topically with liposome compositions as described in Example 1 containing a compound such as p21 to be screened for its effect on chemotherapy-induced alopecia. The liposome composition is provided at a concentration of 100 μg/ml in 1 mM β-mercaptoethanol, for 2 days. […] The rats are then treated with cyclophosphamide, CTX (35 mg/kg, ip once) with the combination of CTX (25 mg/kg)+doxorubicin, DOX (2.5 mg/kg), ip once per day for 3 days, respectively. One rat pup without chemotherapy was used as control.

hair follicles [2] = conditions: mouse, in vivo
Procedure: Liposomes were prepared essentially as described in Example 1. […] Thereafter, 0.5 ml of either calcein (10 mg/ml) or melanin (10 mg/ml) solution, respectively, were added to sonicated PC liposome composition, and further sonicated for 6 minutes, followed by freeze-thawing three times. […] A sample of about 250 microliters of the liposome composition entrapping calcein or melanin was applied directly to the dorsal skin on the mouse in an area of approximately 1.5 cm^2 using a sutured band-aid patch to immobilize the liposome composition onto the skin and to prevent evaporation. The liposome composition was re-applied every 1 hour for 6 hours, with the last application remaining for a total of 24 hours at which time the skin samples were taken by punch biopsy for analysis. For time course experiments, one mouse was used for each time period, with 6 punch biopsies taken from each mouse, at 0.5, 1, 2, 4, 6, 16 and 24 hours. […] Skin samples containing calcein were also analyzed by spectrofluorimetry to determine the effective concentration of a delivered beneficial compound into a selected tissue. […] The sonicated sample was then centrifuged for 10 minutes in a microcentrifuge at 14,000×g, and the resulting supernatant was measured by spectrofluorimetry at an excitation wavelength of 496 nm and an emission wavelength of 517 nm for detecting calcein. The concentration of calcein delivered into the skin tissue was determined from the spectrofluorometric readings by comparison to a standard curve. Skin samples containing melanin were also analyzed by is spectrophotometry to determine the effective concentration of a delivered beneficial compound into a selected tissue. […] The sonicated sample was then centrifuged for 10 minutes in a microcentrifuge at 14,000×g, and the resulting supernatant was measured by spectrophotometry at an absorption wavelength of 300 nm for detecting absorption by melanin. The concentration of melanin delivered into the skin tissue was determined from the spectrophotometric readings by comparison to a standard curve.

hair follicles [3] = assay: Liposome-mediated delivery of calcein dye to hair follicles in mouse skin histoculture; format: cell-based
Procedure: For the histoculture of skin, pieces of shaved outbred white-haired-mouse or nude-mouse skin, approximately 2×5×2 mm, were harvested under a dissection microscope and then histocultured on collagen-gel supported sponge as described by Li et al., Proc. Natl. Acad. Sci. USA 88:1908-1912, 1991. Histoculture was continued for about 24 hours prior to contacting the skin histoculture with the liposome preparation.
Liposomes were prepared by sonication of about 15 mg or 25 mg, preferably 25 mg, phosphatidylcholine (PC) emulsion in phosphate buffered saline (PBS) containing about 20 mg/ml of the fluorescent dye calcein. Liposomes were also prepared by entrapping NBD-phosphatidylcholine fluorescent dye using an emulsion with about 20 mg/ml of the NBD formulation. Liposomes were separated from the non-entrapped dye by gel-filtration on a Sepharose 4B column diluted with phosphate buffered saline. The amount of entrapped dye was measured spectrofluorometrically. Two types of PC were used: egg PC (EPC) and dipalmitoyl PC (DPPC). Due to their phase transition temperatures, liposomes made of DPPC are in a gel phase at about 37° C. while liposomes prepared from EPC are in a liquid-crystalline state.
Samples of the mouse skin histocultures were incubated for about 20 minutes with each of the liposomes and with a solution of “free” calcein dye at the same concentrations used in the liposome preparation. After the tissue samples were thoroughly washed with culture medium free of liposomes to remove excess liposome composition, the specimens were analyzed with a BioRad MRC 600 laser confocal microscope with a BHS filter block, which excites the tissue at 488 nm and passes the light emitted at 520 nm. These parameters are close to the excitation and emission maxima reported for calcein, Haugland, (Ed.) Molecular probes. Handbook of Fluorescent Probes and Research Chemicals, Molecular Probes, Inc., Eugene, (1989-1991 and 1992-1993). There is no autofluorescence of tissue when these emission and excitation wavelengths are used. […]

hair follicles [4] = assay: In vivo topical liposome-melanin coloring of regrowing hair in depilated white-haired mice; parameters: species or system mouse
Description: 3-4 week old white-haired mice were depilated by a mixture of bees wax and rosin gum. Topical application of liposome-melanin as described herein was started on day 6 after depilation. […] The skin surface was then washed with an excess of water and wipe-dried with a gauze pad. The out-growing hair was micro-photographed. The same concentration of naked melanin solution as entrapped into liposomes was used as the control. In another experiment, 3-4 week old white-haired mice were depilated by a mixture of bees wax and rosin gum. Topical application of liposome-melanin composition was started on day 10 after depilation. The melanin used in this experiment was from Biosource, SF, CA #MM-8A-1. The liposome-melanin composition was applied on the skin of mice twice per day for 3 days. The treated skin surface was then washed with an excess of water and wipe-dried with a gauze pad. The mice were then photographed. The same concentration of naked melanin solution as entrapped into liposomes was used as the control.

hair follicles [5] = assay: Liposome-mediated delivery of melanin to hair follicles in white-haired mouse skin histoculture; format: cell-based
Procedure: To that end, liposomes were prepared by sonication. About 20 mg of egg phosphatidycholine was rotary evaporated with a vacuum drier from a chloroform solution to form a thin film on the walls of a 5 ml round-bottomed flask for about 1 hour. The dried thin film phospholipid was suspended in about 0.5 ml phosphate buffered saline (pH 7.4) on a vortex mixer and then sonicated with a Branson probe-type sonicator fitted with a microtip at power level 3 for about 8 minutes. Then 0.5 ml of a solution of melanin (10 mg/ml) was entrapped with the above suspension by sonication for about an additional 4 minutes. Liposomes were separated from the non-entrapped melanin by gel-filtration on a Sepharose 4B column equilibrated with phosphate buffered saline.
Pieces of outbred white-haired mouse skin derived from 1-2 weeks-old animals (about 2×5×2 mm each) were harvested under a dissection microscope. […] Liposome interaction with the skin was initiated after about 24 hours of histoculture. Mouse skin histocultures were incubated for about 12 hours with liposomes. […]
The skin histocultures were counter-stained with the dye 2′,7′-bis(2-carboxyethyl)-5 which is activated to fluorescence by nonspecific esterases present only in living cells. After the tissues were thoroughly washed, the specimens were analyzed with a Nikon fluorescence microscope equipped with a fluorescein cube. […]

**Q.** With `C=C1/C(=C\C=C2/CCC[C@]3(C)[C@@H]([C@H](C)CCCC(C)(C)O)CC[C@@H]23)C[C@@H](O)C[C@@H]1O` [1,25-dihydroxyvitamin D3] as the compound, how does the “prevention of alopecia induced by cytoxan or etoposide” value ([1]; topical) read?
**A.** prevents alopecia induced by cytoxan or etoposide

**Q.** What does the source list for `O=P1(N(CCCl)CCCl)NCCCO1` (centres unmarked) [CTX, cyclophosphamide]?
**A.** patients with severe alopecia (patients; intravenous): 75-90%; alopecia in young rats after treatment [1]: develop alopecia; other toxic effects in rat pups (Sprague-Dawley rats): No other toxic effects were noted; alopecia in rat pups (Sprague-Dawley rats; noted at day-7): alopecia can be seen

**Q.** Which “alopecia in young rats after treatment” value [1] does the source give for `Nc1ccn([C@@H]2O[C@H](CO)[C@@H](O)[C@@H]2O)c(=O)n1` [ara-C] here?
**A.** develop alopecia

**Q.** Which results are given for `COc1cccc2c1C(=O)c1c(O)c3c(c(O)c1C2=O)C[C@@](O)(C(=O)CO)C[C@@H]3O[C@H]1C[C@H](N)[C@H](O)[C@H](C)O1` [doxorubicin]?
**A.** hair loss in patients (patients; human, in vivo): 85-100%; alopecia in young rats after treatment [1]: develop alopecia

**Q.** For `O=C(O)CN(CC(=O)O)Cc1cc2c(cc1O)Oc1cc(O)c(CN(CC(=O)O)CC(=O)O)cc1C21OC(=O)c2ccccc21` [free calcein, calcein], which “delivery of calcein into hair follicles and shafts (fluorescent microscopy)” value (hair follicles [2]) is on record?
**A.** trapped in the stratum corneum and did not enter the hair shafts or follicles

**Q.** And the “calcein delivered in the hair follicles” value (hair follicles [2]; outbred white-haired, 24 h)?
**A.** about 1.4 ng/mm^2

**Q.** What about the “delivery of calcein into hair follicles by topical use” value (hair follicles [3]; histoculture topically treated 48 hours) of the same compound?
**A.** rarely penetrated through the skin to stain the hair follicles

**Q.** And the “delivery of green fluorescent dye to hair follicles and shafts” value (hair follicles [3]; histoculture treated 48 hours, propidium iodide counterstain)?
**A.** very weak staining of a few hair follicles

**Q.** What about the “delivery of fluorescent dye to hair follicles (confocal fluorescence microscopy)” value (hair follicles [3]; skin histoculture incubated about 20 minutes) of the same compound?
**A.** relatively low fluorescence with no preferential staining of any particular skin structure

**Q.** Which “coloring of out-growing hair” value (hair follicles [4]; topical once per day for 4 days from day 6 after depilation) does the source give for melanin [naked melanin] here?
**A.** No hair coloring is observed

**Q.** What about the “coloring of regrown hair” value (hair follicles [4]; topical twice per day for 3 days from day 10 after depilation) of the same compound?
**A.** regrown hair remained white

**Q.** And the “melanin delivered to the hair follicles” value (hair follicles [2])?
**A.** less than 2.0 ug/mm^2

**Q.** And the “localization of melanin in hair follicles and hair shafts (H&E paraffin section)” value (hair follicles [5])?
**A.** no “free” melanin can be observed either in hair shafts or the hair follicular cells
